Assay results as given in US20240391940A1, “FUSED RING-CONTAINING COMPOUND, APPLICATION THEREOF, AND COMPOSITION CONTAINING SAME” (GenEros Biopharma Ltd., priority 2020, published 2024).
Where “and” joins values, the source holds several entries; their conditions need not be identical. Equal entries are not always repeated.

How the values were obtained:
Format in all cases: in vivo, C57BL/6 Apoe KO mice
[1] = system: Apoe KO mouse atherosclerosis model; assay: Atherosclerosis model (Apoe KO mice, high-fat diet): blood lipid tests TCHO, TG, LDL-C, HDL-C; parameters: blood lipids (CHO) in Apo E−/− mice / blood lipids (TG) in Apo E−/− mice / blood lipids (HDL-C) in Apo E−/− mice / blood lipids (LDL-C) in Apo E−/− mice: unit not given here; conditions: for blood lipids (CHO) in Apo E−/− mice / blood lipids (HDL-C) in Apo E−/− mice / blood lipids (LDL-C) in Apo E−/− mice / blood lipids (TG) in Apo E−/− mice: HFD + ATV-5 mpk, 5 mg/kg
Description: (§1) Method: Apoe KO mice were tested for basal blood lipid levels and divided into a normal control group and a high-fat group. After 8 weeks of housing, the mice from the high-fat group were divided into 4 groups of about 8: a normal diet group (Chow), a high-fat diet model group (HFD), an Atorvastatin positive group (HFD+atorvastatin 5 mpk, QD), and a GEN1-284s group (284-60 mpk, QD). Oral administration was performed for 8 consecutive weeks, and the effect of the compound on the following indicators in Apoe KO mice was observed: 4 blood lipid tests (TC, TG, HDL-C and LDL-C), aortic plaque En-face staining, and pathological oil red staining of the cardiac outflow tract.
(§2) Mice from the groups except for the normal diet control group (Chow) were fed with high-fat feed every day for […]. From week 9, each group was orally administered solvent or a corresponding test compound, and body weight data were recorded every day for 8 consecutive weeks. After the first 8 weeks' high-fat diet, blood samples were taken and centrifuged to separate serum, and the serum was tested for blood lipid levels (TCHO, TG, LDL-C and HDL-C). The mice were randomly grouped according to the TCHO results and body weight. During the subsequent 8 weeks of administration, blood lipid tests (TCHO, TG, LDL-C and HDL-C) were run once every 4 weeks.
Mice were fasted overnight, and blood (150 μL) was collected via mandibular blood sampling or eye ball removal (for endpoint only) and left at room temperature for 2 h. The blood was centrifuged at 4° C. at 7000 rpm for 10 min, and serum was pipetted, quick-frozen in dry ice and then stored at −80° C. before analysis. The serum was tested for the biochemical indicators TCHO, TG, LDL-C and HDL-C using kits and a microplate reader.

[2] = system: Apoe KO mouse atherosclerosis model; assay: Atherosclerosis model: aortic plaque En-face staining and plaque area
Description: as §1, §2
At the end of the experiment, the mice were euthanized by CO2 inhalation, and their hearts and aortas (from the aortic arch to the iliac artery) were isolated. The isolated artery was dissected longitudinally from the aortic arch to the iliac artery, fixed in 4% paraformaldehyde for 30 min, synchronized with 60% isopropanol for 10 min, then stained in 60% oil red for 30 min, and then washed with 60% isopropanol 3 times for 5 min each time. Finally, the stained aorta was washed with deionized water and photographed. The proportion of red plaque areas was measured using Image Pro Plus 6.0 (Media Cybernetics, MD, US).

[3] = system: Apoe KO mouse atherosclerosis model; assay: Atherosclerosis model: plaques in the cardiac (left ventricular) outflow tract
Description: as §1, §2
Mouse heart samples were fixed overnight in 4% paraformaldehyde solution and dehydrated in sucrose solution. Then, the samples were embedded with OCT (Sakura, Japan) under a stereo microscope and made into 10 μm frozen sections. The sections were stained with oil red ORO and then subjected to routine pathological examinations. Images of the outflow tract were acquired under an optical microscope at 4× magnification, and high-quality morphological observations were carried out using an eyepiece with 20× magnification. The percentage of intimal lesions in the cardiac outflow tract was calculated. The detection criteria followed the criteria for histological classification of human atherosclerotic disease, which are described in detail below:
The area of plaques in the left ventricular outflow tract was measured using a microscope, and the proportion of plaques in the left ventricular outflow tract was calculated; this value reflects the degree of stenosis in the cardiac outflow tract vessel.

[4] = Apoe KO mice, high-fat diet, atorvastatin 5 mpk QD oral

CC(C)c1c(C(=O)Nc2ccccc2)c(-c2ccccc2)c(-c2ccc(F)cc2)n1CC[C@@H](O)C[C@@H](O)CC(=O)O [ATV]
blood lipids (CHO) in Apo E−/− mice ([1]; Time 1, individual mice): 1.195 and 1.061 and 1.217 and 1.075 and 1.359 and 0.7849 and 0.5037 | blood lipids (HDL-C) in Apo E−/− mice ([1]; Time 1, individual mice): 0.4304 and 1.163 and 1.735 and 1.563 and 1.618 and 1.29 and 1.027 | blood lipids (LDL-C) in Apo E−/− mice ([1]; Time 1, individual mice): 1.101 and 1.061 and −0.07821 and 1.123 and 1.296 and 0.676 and 1.006 | blood lipids (TG) in Apo E−/− mice ([1]; Time 1, individual mice): 1.038 and 0.845 and 1.136 and 1.282 and 0.875 and 1.001 and 0.9307 | blood lipids (CHO) in Apo E−/− mice ([1]; Time 2, individual mice): 0.8468 and 0.9207 and 0.799 and 1.023 and 0.6043 and 0.8602 and 0.8475 and 0.8932 | blood lipids (HDL-C) in Apo E−/− mice ([1]; Time 2, individual mice): 1.178 and 0.769 and 0.5861 and 0.7669 and 0.6443 and 0.8023 and 0.8584 and 0.9664 | blood lipids (LDL-C) in Apo E−/− mice ([1]; Time 2, individual mice): 0.7237 and 0.8132 and 0.6614 and 1.342 and 0.603 and 0.5797 and 1.152 and 1.234 | blood lipids (TG) in Apo E−/− mice ([1]; Time 2, individual mice): 1.204 and 0.9447 and 1.095 and 1.111 and 0.7477 and 0.9934 and 0.7632 and 0.9336 | blood lipids (CHO) in Apo E−/− mice ([1]; Time 3, individual mice): 1.237 and 0.9298 and 1.587 and 1.424 and 1.118 and 0.7614 and 1.278 and 1.057 | blood lipids (HDL-C) in Apo E−/− mice ([1]; Time 3, individual mice): 0.713 (2×) and 0.8416 and 0.6487 and 1.292 and 1.1791 and 0.8576 (2×) | blood lipids (LDL-C) in Apo E−/− mice ([1]; Time 3, individual mice): 0.9753 and 0.8023 and 0.8722 and 0.6477 and 0.7655 and 0.4564 and 1.218 and 1.421 | blood lipids (TG) in Apo E−/− mice ([1]; Time 3, individual mice): 1.341 and 0.9611 and 1.459 and 1.456 and 0.9501 and 1.063 and 1.577 and 0.6584 | blood lipids (CHO) in Apo E−/− mice ([1]; Time 4, individual mice): 1.183 and 1.199 and 1.344 and 1.673 and 1 and 1.22 and 0.7566 and 1.398 | blood lipids (HDL-C) in Apo E−/− mice ([1]; Time 4, individual mice): 0.9522 and 1.062 and 0.6434 and 4.724 and 0.6654 and 1.371 and 0.6875 and 0.8419 | blood lipids (LDL-C) in Apo E−/− mice ([1]; Time 4, individual mice): 1.05 and 1.675 and 0.9086 and 0.8511 and 1.319 and 0.3604 and 0.6019 and 1.123 | blood lipids (TG) in Apo E−/− mice ([1]; Time 4, individual mice): 1.516 and 1.429 and 2.38 and 2.165 and 1.213 and 1.476 and 0.5106 and 0.9949 | atherosclerotic plaques in mice (proportion of arterial plaque area) ([2]; HFD + ATV-5 mpk, PO QD 8 W, individual mice, 5 mg/kg, in % (unit assumed)): 10.98 and 13.52 and 8.609 and 9.551 and 9.286 and 13.92 and 13.86 | plaques in the cardiac outflow tracts of mice (proportion of plaques in the left ventricular outflow tract) ([3]; HFD + ATV-5 mpk, PO QD 8 W, individual mice, 5 mg/kg, in %): 1.923 and 8.46 and 9.071 and 7.844 and 1.618 and 3.771 and 2.279 and 8.38

CC(C)c1c(C(=O)Nc2ccccc2)c(-c2ccccc2)c(-c2ccc(F)cc2)n1CC[C@@H](O)C[C@@H](O)CC(=O)O [atorvastatin, reference compound]
Effect on dyslipidemia ([1]; Apoe KO mice, high-fat diet, atorvastatin 5 mpk QD oral, 8 weeks): dyslipidemia was relieved | Proportion of the arterial plaque area [2, 4]: significantly reduced | Left ventricular outflow tract plaques [3, 4]: significantly fewer plaques than the HFD group
